{
  "source": "patent US9169229B2",
  "about": "“Method for producing purified dialkyl-furan-2,5-dicarboxylate by physical separation and solid liquid separation” (Eastman Chemical Company, priority 2012, dated 2015)",
  "key": {"[1]": {"assay": "Solubility of DMFD in water (jacketed solubility cell, samples analyzed by gas chromatography)", "type": "physicochemical", "procedure": "(§1) The solubility of DMFD in water and methanol was tested according to the following procedure: A jacketed 120 ml solubility cells equipped with a condenser, a digital thermometer, a nitrogen blanket and connected to a circulating bath capable of heating/cooling was charged with […] and water or methanol. The heterogeneous mixture was heated to the desired temperature and sample was taken using preheated fritted glass pipette. The samples were analyzed using gas chromatography."}, "[2]": {"assay": "Solubility of DMFD in methanol (jacketed solubility cell, samples analyzed by gas chromatography)", "type": "physicochemical", "procedure": "as §1"}},
  "data": [
    {"smiles": "COC(=O)c1ccc(C(=O)OC)o1", "note": "[DMFD, dimethyl furan-2,5-dicarboxylate]", "values": [
      {"measurement": "solubility of DMFD in water compared to methanol (in words)", "setting": "[1]; temperature points from about 1° C. to about 61° C.", "result": "very low solubility in water compared to methanol"},
      {"measurement": "DMFD Solubility (wt %) in Water", "setting": "[1]; T 1.4 ° C.", "result": "BDL"},
      {"measurement": "DMFD Solubility (wt %) in Water", "setting": "[1]; T 13.1 ° C.", "result": "BDL"},
      {"measurement": "DMFD Solubility (wt %) in Water", "setting": "[1]; T 26.6 ° C.", "result": "BDL"},
      {"measurement": "DMFD Solubility (wt %) in Water", "setting": "[1]; T 35.6 ° C.", "result": "BDL"},
      {"measurement": "DMFD Solubility (wt %) in Water", "setting": "[1]; T 47.0 ° C.", "result": 0.1, "unit": "wt %"},
      {"measurement": "DMFD Solubility (wt %) in Water", "setting": "[1]; T 56.6 ° C.", "result": 0.2, "unit": "wt %"},
      {"measurement": "DMFD Solubility (wt %) in Water", "setting": "[1]; T 63.9 ° C.", "result": 0.3, "unit": "wt %"},
      {"measurement": "DMFD Solubility (wt %) in Water", "setting": "[1]; T 74.6 ° C.", "result": 0.4, "unit": "wt %"},
      {"measurement": "DMFD Solubility (wt %) in Water", "setting": "[1]; T 89.5 ° C.", "result": 0.9, "unit": "wt %"},
      {"measurement": "DMFD Solubility (wt %) in Water", "setting": "[1]; T 97.5 ° C.", "result": 1.3, "unit": "wt %"},
      {"measurement": "DMFD Solubility (wt %) in Methanol", "setting": "[2]; T 1.0 ° C.", "result": 0.6, "unit": "wt %"},
      {"measurement": "DMFD Solubility (wt %) in Methanol", "setting": "[2]; T 14.1 ° C.", "result": 1.4, "unit": "wt %"},
      {"measurement": "DMFD Solubility (wt %) in Methanol", "setting": "[2]; T 26.3 ° C.", "result": 2.8, "unit": "wt %"},
      {"measurement": "DMFD Solubility (wt %) in Methanol", "setting": "[2]; T 35.3 ° C.", "result": 4.5, "unit": "wt %"},
      {"measurement": "DMFD Solubility (wt %) in Methanol", "setting": "[2]; T 46.6 ° C.", "result": 8.7, "unit": "wt %"},
      {"measurement": "DMFD Solubility (wt %) in Methanol", "setting": "[2]; T 56.1 ° C.", "result": 15.4, "unit": "wt %"},
      {"measurement": "DMFD Solubility (wt %) in Methanol", "setting": "[2]; T 61.3 ° C.", "result": 20.8, "unit": "wt %"}
    ]}
  ]
}
